Assay [1] concerns AR. Description: In Vitro AR Agonism Assay (LNAR reporter cell line). The class given is cell-based. Conditions: for Relative Maximum Response to Mifepristone: LNAR cells, RPMI + 10% CSS, 18-24 hrs, maximum response of Mifepristone set to 1. On the procedure:
Example 6: In Vitro AR Agonism Assay
The AR agonism assay was done in the LNAR reporter cell line which has overexpressed AR and 4XARE-Luc genes. This cell line is sensitive to even minor partial AR agonism activity in hormone-deprived media (CSS). The assays were done in RPMI (without phenol red)+10% CSS using 6000 LNAR cells/well in 384-well plates and compounds were incubated with cells in […] incubator for 18-24 hrs. OneGlo reagent (25 uL/well) was added and plates were read with luminometer within 3 minutes.
To gauge the AR partial agonism activity, Mifepristone is included as a standard in the assay. AR agonism assay results are quantified by determining the ratio of the maximum response of individual compounds to the maximum response of Mifepristone (arbitrarily set to 1). Values of Table 3 are reported as Relative Maximum Response to Mifepristone. This general trend of AR agonism was shown for the class of compounds described herein.

For assay [2], the target named is T1, GR (Homo sapiens, UniProt P04150).
T1 construct: expressed in transfected cells; host or cells: CHO-K1 (CHO-K1-GR-MMTV-Luc reporter cells)
T1 sequence (P04150 1-777): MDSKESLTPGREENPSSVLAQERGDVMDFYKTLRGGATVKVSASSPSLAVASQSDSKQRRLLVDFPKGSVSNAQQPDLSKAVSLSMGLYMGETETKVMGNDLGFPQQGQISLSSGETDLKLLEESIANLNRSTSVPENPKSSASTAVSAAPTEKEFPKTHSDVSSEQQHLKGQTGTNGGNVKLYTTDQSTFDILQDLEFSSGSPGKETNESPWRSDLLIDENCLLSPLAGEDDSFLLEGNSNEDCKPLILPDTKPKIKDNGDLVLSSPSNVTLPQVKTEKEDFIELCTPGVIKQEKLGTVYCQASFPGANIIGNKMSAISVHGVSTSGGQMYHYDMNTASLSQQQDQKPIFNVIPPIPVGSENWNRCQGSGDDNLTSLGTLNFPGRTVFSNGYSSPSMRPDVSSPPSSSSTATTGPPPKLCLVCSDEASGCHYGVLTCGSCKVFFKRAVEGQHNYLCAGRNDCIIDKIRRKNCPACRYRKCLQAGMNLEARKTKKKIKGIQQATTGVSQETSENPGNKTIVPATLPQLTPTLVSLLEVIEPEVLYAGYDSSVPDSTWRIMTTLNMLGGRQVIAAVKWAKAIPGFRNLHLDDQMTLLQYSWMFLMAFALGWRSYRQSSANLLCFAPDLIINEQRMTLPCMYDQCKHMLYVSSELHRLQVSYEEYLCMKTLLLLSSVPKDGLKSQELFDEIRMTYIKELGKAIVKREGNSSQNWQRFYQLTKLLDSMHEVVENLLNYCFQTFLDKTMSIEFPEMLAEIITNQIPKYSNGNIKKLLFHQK
Kind of assay: In Vitro GR Luciferase Reporter Assay (antagonist assay). The class given is cell-based. Conditions: CHO-K1-GR-MMTV-Luc reporter cells, 10 nM Dexamethasone, 18-24 hours. The procedure: Cell Line: CHO-K1-GR-MMTV-Luc reporter cells
Culture Media: DMEM (with phenol red)+10% FBS
Assay Media: DMEM (without phenol red)+10% CSS
Culture CHO-K1-GR-MMTV-Luc reporter cells in 15 cm plates in Culture Media at conditions less than 90% confluence.
Prepare 200×DMSO 1:5 serial dilutions of control and test compounds in 96-well non-sterile V bottom plate in DMSO, 8 serial dilutions for each compound.
Add compounds: 5 ul of assay media diluted compounds were added to appropriate wells and followed a quick spin (1000 rpm, 10 sec) to bring media and cells to the bottom of plate. The plates were covered with SealMate film to avoid evaporation and placed in 37° C. incubator for approximately 18-24 hours.
Read plates: Equilibrate appropriate amount of Promega OneGlo luciferase reagent to room temperature. Remove the plates from incubator and add 25 uL of OneGlo reagent/well by multiple channel pipette and read the plates with Tecan F500 luminometer within 3 minutes.
The ability of the compounds disclosed herein to inhibit GR activity was quantified and the respective IC50 value was determined.
A general note: A reporter such as luciferase makes a cellular process visible.

Turning to `CC#C[C@]1(O)CC[C@H]2[C@@H]3CCC4=CC(=O)CCC4=C3[C@@H](c3ccc(N(C)C)cc3)C[C@@]21C` [Mifepristone, reference compound], in assay [1] (in concentrations as low as 10 nM), the AR partial agonism entry is “strong partial AR agonism”.

On to `CC#C[C@]1(O)CC[C@H]2[C@@H]3CCC4=CC(=O)CCC4=C3[C@@H](c3ccc(C)c(C)c3)C[C@@]21C` [drawing 192], for which, in assay [2], the IC50 (as a rule, the concentration needed to halve the response being measured) is less than 100 nM.

In assay [2], `CC#C[C@]1(O)CC[C@H]2[C@@H]3CCC4=CC(=O)CCC4=C3[C@@H](c3cc(F)cc(F)c3)C[C@@]21C` [drawing 196] yielded an IC50 of less than 100 nM. On the same count and under the same terms, the result for `CC#C[C@]1(O)CC[C@H]2[C@@H]3CCC4=CC(=O)CCC4=C3[C@@H](c3ccc(F)c(C#N)c3)C[C@@]21C` [drawing 199] reads less than 100 nM.

In assay [2], `CC#C[C@]1(O)CC[C@H]2[C@@H]3CCC4=CC(=O)CCC4=C3[C@@H](c3ccc(Cl)c(C(C)C)c3)C[C@@]21C` [drawing 200] yielded an IC50 of less than 100 nM. `CC#C[C@]1(O)CC[C@H]2[C@@H]3CCC4=CC(=O)CCC4=C3[C@@H](c3ccc(C(C)C)c(N(C)C)c3)C[C@@]21C` [drawing 201] gave an IC50 in assay [2] of less than 100 nM. The compound `CC#C[C@]1(O)CC[C@H]2[C@@H]3CCC4=CC(=O)CCC4=C3[C@@H](c3ccc(N(C)C)c(C(C)C)c3)C[C@@]21C` [drawing 203] came in with an IC50 in assay [2] of more than 100 nM. Consider `CC#C[C@]1(O)CC[C@H]2[C@@H]3CCC4=CC(=O)CCC4=C3[C@@H](c3ccc(Cl)c(OC)c3)C[C@@]21C` [drawing 204], for which, in assay [2], the 50% inhibitory concentration (IC50) was more than 100 nM. Compound `CC#C[C@]1(O)CC[C@H]2[C@@H]3CCC4=CC(=O)CCC4=C3[C@@H](c3cc(F)c(C)c(F)c3)C[C@@]21C` [drawing 209] returned a half-inhibitory concentration (IC50) in assay [2] of less than 100 nM. Regarding `CC#C[C@]1(O)CC[C@H]2[C@@H]3CCC4=CC(=O)CCC4=C3[C@@H](c3ccc4c(c3)OCCO4)C[C@@]21C` [drawing 210], in assay [2], the IC50 is less than 100 nM. The same measure, in the same setting: the result for `CC#C[C@]1(O)[C@H](CC)C[C@H]2[C@@H]3CCC4=CC(=O)CCC4=C3[C@@H](c3ccc(N(C)C)cc3)C[C@@]21C` [drawing 225] reads less than 100 nM; that for `CC#C[C@]1(O)[C@H](C)C[C@H]2[C@@H]3CCC4=CC(=O)CCC4=C3[C@@H](c3ccc(S(=O)(=O)N4CCCCC4)cc3)C[C@@]21C` [drawing 226], less than 100 nM. The same measure, in the same setting: under `CC#C[C@]1(O)[C@H](C)C[C@H]2[C@@H]3CCC4=CC(=O)CCC4=C3[C@@H](c3ccc(N4CCOC[C@H]4C)cc3)C[C@@]21C` [drawing 227] stands less than 100 nM.

For `CC#C[C@]1(O)CC[C@H]2[C@@H]3CCC4=CC(=O)CCC4=C3[C@@H](c3ccc(S(=O)(=O)N4CCCCC4)cc3)C[C@@]21C` [drawing 241], the “Relative Maximum Response to Mifepristone” value (from here on “Relative Maximum Response”) in assay [1] is “A (A: ≤0.4)”. Consider `CC#C[C@]1(O)CC[C@H]2[C@@H]3CCC4=CC(=O)CCC4=C3[C@@H](c3ccc(S(=O)(=O)C(C)(C)C)cc3)C[C@@]21C` [drawing 242], for which the “Relative Maximum Response” value in assay [1] is “A (A: ≤0.4)”. `CC#C[C@]1(O)CC[C@H]2[C@@H]3CCC4=CC(=O)CCC4=C3[C@@H](c3cccc(C(C)C)c3)C[C@@]21C` [drawing 243]: the “Relative Maximum Response” value in assay [1] is “A (A: ≤0.4)”. On the same count and under the same terms, the result for `CC#C[C@]1(O)CC[C@H]2[C@@H]3CCC4=CC(=O)CCC4=C3[C@@H](c3cccc(OCC)c3)C[C@@]21C` [drawing 244] reads “A (A: ≤0.4)”; that for `CC#C[C@]1(O)CC[C@H]2[C@@H]3CCC4=CC(=O)CCC4=C3[C@@H](c3ccc(C)c(C)c3)C[C@@]21C` [drawing 245], “A (A: ≤0.4)”. Regarding `CC#C[C@]1(O)CC[C@H]2[C@@H]3CCC4=CC(=O)CCC4=C3[C@@H](c3cc(F)cc(F)c3)C[C@@]21C` [drawing 246], in assay [1], the “Relative Maximum Response” value is “A (A: ≤0.4)”.

`CC#C[C@]1(O)CC[C@H]2[C@@H]3CCC4=CC(=O)CCC4=C3[C@@H](c3ccc(F)c(C#N)c3)C[C@@]21C` [drawing 247]: in assay [1], the “Relative Maximum Response” value is on record as “B (B: >0.4)”. For the compound `CC#C[C@]1(O)CC[C@H]2[C@@H]3CCC4=CC(=O)CCC4=C3[C@@H](c3ccc(Cl)c(C(C)C)c3)C[C@@]21C` [drawing 248], the “Relative Maximum Response” value in assay [1] was “A (A: ≤0.4)”. Regarding `CC#C[C@]1(O)CC[C@H]2[C@@H]3CCC4=CC(=O)CCC4=C3[C@@H](c3ccc(C(C)C)c(N(C)C)c3)C[C@@]21C` [drawing 249], the “Relative Maximum Response” value in assay [1] is recorded as “A (A: ≤0.4)”. Regarding `CC#C[C@]1(O)CC[C@H]2[C@@H]3CCC4=CC(=O)CCC4=C3[C@@H](c3ccc(N(C)C)c(C(C)C)c3)C[C@@]21C` [drawing 250], the “Relative Maximum Response” value in assay [1] is “A (A: ≤0.4)”. As to `CC#C[C@]1(O)CC[C@H]2[C@@H]3CCC4=CC(=O)CCC4=C3[C@@H](c3ccc(Cl)c(OC)c3)C[C@@]21C` [drawing 251], the “Relative Maximum Response” value in assay [1] is “A (A: ≤0.4)”. Consider `CC#C[C@]1(O)CC[C@H]2[C@@H]3CCC4=CC(=O)CCC4=C3[C@@H](c3cc(F)c(C)c(F)c3)C[C@@]21C` [drawing 252], for which the “Relative Maximum Response” value in assay [1] is “A (A: ≤0.4)”. `CC#C[C@]1(O)CC[C@H]2[C@@H]3CCC4=CC(=O)CCC4=C3[C@@H](c3ccc4c(c3)OCCO4)C[C@@]21C` [drawing 253]: the “Relative Maximum Response” value in assay [1] is on record as “A (A: ≤0.4)”. Regarding `CC#C[C@]1(O)[C@H](CC)C[C@H]2[C@@H]3CCC4=CC(=O)CCC4=C3[C@@H](c3ccc(N(C)C)cc3)C[C@@]21C` [drawing 254], the “Relative Maximum Response” value in assay [1] is listed as “A (A: ≤0.4)”.

On to `CC#C[C@]1(O)[C@H](C)C[C@H]2[C@@H]3CCC4=CC(=O)CCC4=C3[C@@H](c3ccc(S(=O)(=O)N4CCCCC4)cc3)C[C@@]21C` [drawing 255], for which the “Relative Maximum Response” value in assay [1] is recorded as “A (A: ≤0.4)”. `CC#C[C@]1(O)[C@H](C)C[C@H]2[C@@H]3CCC4=CC(=O)CCC4=C3[C@@H](c3ccc(N4CCOC[C@H]4C)cc3)C[C@@]21C` [drawing 256]: the “Relative Maximum Response” value in assay [1] is “B (B: >0.4)”.

Source of the values: patent US11110103B2, “Inhibitors of glucocorticoid receptor” (ORIC Pharmaceuticals, Inc., priority 2015, dated 2021).
